Measured values from ChEMBL document CHEMBL6078641, “Modulation of aryl hydrocarbon receptor activity by halogenated indoles” (Bioorg Med Chem, 2024).
pEC50, pIC50, pKi: −log10 of the molar value.

Key:
[1] = test system: LS174T; assay: Cytotoxicity against human LS174T cells upto 200 uM incubated for 24 hrs by MTT assay; format: toxicity, cell-based
[2] = target: T1, Aryl hydrocarbon receptor (Mus musculus, UniProt P30561); assay: Displacement of [3H]-TCDD from AhR in mouse Hepa1c1c7 cell cytosolic lysate by competitive binding assay; format: subcellular, Cytosol; conditions: for Activity: mouse, cytosol, dose 0.1-100 µM
T1 sequence (P30561 whole entry): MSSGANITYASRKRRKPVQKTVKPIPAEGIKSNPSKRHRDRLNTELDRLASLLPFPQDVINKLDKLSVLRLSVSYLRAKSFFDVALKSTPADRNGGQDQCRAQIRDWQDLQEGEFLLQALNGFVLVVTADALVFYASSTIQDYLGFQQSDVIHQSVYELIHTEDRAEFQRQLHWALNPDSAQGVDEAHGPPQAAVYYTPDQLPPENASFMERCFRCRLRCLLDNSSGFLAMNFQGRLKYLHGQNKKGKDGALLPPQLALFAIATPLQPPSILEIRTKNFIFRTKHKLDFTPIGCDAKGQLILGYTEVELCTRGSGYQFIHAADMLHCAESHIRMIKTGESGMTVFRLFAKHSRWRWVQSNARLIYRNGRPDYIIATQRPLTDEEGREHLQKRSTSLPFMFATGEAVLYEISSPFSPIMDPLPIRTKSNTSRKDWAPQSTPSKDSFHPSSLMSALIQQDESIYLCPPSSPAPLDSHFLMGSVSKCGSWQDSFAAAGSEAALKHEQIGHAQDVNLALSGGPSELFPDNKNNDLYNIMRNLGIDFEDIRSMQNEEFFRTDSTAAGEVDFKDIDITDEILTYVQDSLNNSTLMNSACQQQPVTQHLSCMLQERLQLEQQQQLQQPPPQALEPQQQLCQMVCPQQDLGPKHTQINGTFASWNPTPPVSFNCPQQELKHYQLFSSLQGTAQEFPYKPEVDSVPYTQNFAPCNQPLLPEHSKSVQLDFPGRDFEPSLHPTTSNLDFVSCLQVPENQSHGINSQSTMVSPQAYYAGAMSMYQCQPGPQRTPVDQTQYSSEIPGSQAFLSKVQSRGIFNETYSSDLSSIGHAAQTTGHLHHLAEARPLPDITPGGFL

[3] = Induction of CYP1A1 mRNA expression in human LS180 cells incubated for 4 hrs by chromatin immunoprecipitation assay; format: functional
[4] = target: T1, Aryl hydrocarbon receptor; assay: Displacement of [3H]-TCDD from AhR in mouse Hepa1c1c7 cell cytosolic lysate at 50 uM by competitive binding assay relative to control; format: subcellular, Cytosol; conditions: Hepa-1c1c7, mouse, read-out: Activity
[5] = Induction of CYP1A1 mRNA expression in human LS180 cells at 25 uM incubated for 4 hrs by chromatin immunoprecipitation assay relative to control; format: functional
[6] = target: T2, Aryl hydrocarbon receptor (Homo sapiens, UniProt P35869); assay: Agonist activity at Luc-fused AhR (unknown origin) transcriptional activity expressed in human LS174T cells incubated for 24 hrs by luciferase reporter gene assay; format: cell-based
T2 sequence (P35869 whole entry): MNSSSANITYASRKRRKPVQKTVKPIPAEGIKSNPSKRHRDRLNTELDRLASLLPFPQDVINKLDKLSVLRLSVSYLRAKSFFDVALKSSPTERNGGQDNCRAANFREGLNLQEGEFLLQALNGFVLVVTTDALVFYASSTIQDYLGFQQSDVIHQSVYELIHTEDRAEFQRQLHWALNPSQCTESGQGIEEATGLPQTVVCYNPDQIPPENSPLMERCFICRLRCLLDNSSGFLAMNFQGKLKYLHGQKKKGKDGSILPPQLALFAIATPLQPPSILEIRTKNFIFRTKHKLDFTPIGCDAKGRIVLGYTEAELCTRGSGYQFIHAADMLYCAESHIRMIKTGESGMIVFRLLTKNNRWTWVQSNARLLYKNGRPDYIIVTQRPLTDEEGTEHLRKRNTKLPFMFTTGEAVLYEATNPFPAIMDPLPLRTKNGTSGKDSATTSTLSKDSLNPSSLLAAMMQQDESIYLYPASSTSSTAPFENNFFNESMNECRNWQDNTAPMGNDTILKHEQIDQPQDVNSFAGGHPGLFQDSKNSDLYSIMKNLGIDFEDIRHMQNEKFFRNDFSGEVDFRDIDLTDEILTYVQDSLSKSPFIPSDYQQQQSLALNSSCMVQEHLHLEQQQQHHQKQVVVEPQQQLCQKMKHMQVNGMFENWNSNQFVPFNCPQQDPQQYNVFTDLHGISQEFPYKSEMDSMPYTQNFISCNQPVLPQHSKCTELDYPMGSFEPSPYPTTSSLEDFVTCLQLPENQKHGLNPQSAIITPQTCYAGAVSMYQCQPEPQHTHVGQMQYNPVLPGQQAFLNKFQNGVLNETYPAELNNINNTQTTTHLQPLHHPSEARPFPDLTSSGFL

[7] = target: T2, Aryl hydrocarbon receptor; assay: Agonist activity at Luc-fused AhR (unknown origin) transcriptional activity expressed in human LS174T cells at 100 uM incubated for 4 hrs by luciferase reporter gene assay relative to control; format: cell-based; conditions: read-out: Activity
[8] = target: T2, Aryl hydrocarbon receptor; assay: Agonist activity at Luc-fused AhR (unknown origin) transcriptional activity expressed in human LS174T cells incubated for 4 hrs by luciferase reporter gene assay; format: cell-based
[9] = test system: LS174T; assay: Cytotoxicity against human LS174T cells assessed as decrease in cell viability at 200 uM incubated for 24 hrs by MTT assay relative to control; format: toxicity, cell-based
[10] = Induction of CYP1A1 mRNA expression in human LS180 cells assessed as fold increase at 100 uM incubated for 8 hrs by qRT-PCR analysis relative to control; format: functional
[11] = Induction of CYP1A1 mRNA expression in human LS180 cells assessed as fold increase at 100 uM incubated for 24 hrs by qRT-PCR analysis relative to control; format: functional

SMILES | activity at 100 µM [7] | pEC50 [8] | Activity [1] | EC80 [3] | further results
Fc1ccc2cc[nH]c2c1 | – | – | Non-toxic | – | –
Clc1cccc2cc[nH]c12 | – | – | Non-toxic | – | –
O=C1Cc2ccc(Cl)cc2N1 | – | – | Non-toxic | 0.3 µM | pIC50 [2]: 5.13; pKi [2]: 5.43; Activity [2]: Dose-dependent-effect; inhibition at 50 µM [4]: 50%
Brc1cccc2[nH]ccc12 | – | – | Non-toxic | – | –
O=C1Cc2cccc(Cl)c2N1 | – | – | Non-toxic | – | –
O=C1Cc2cc(Cl)ccc2N1 | – | – | Non-toxic | – | –
Brc1ccc2cc[nH]c2c1 | – | – | Non-toxic | 4.1 µM | pIC50 [2]: 4.36; pKi [2]: 4.66; Activity [2]: Dose-dependent-effect
Clc1ccc2cc[nH]c2c1 | 92% | 5.37 | Non-toxic | – | pEC50 [6]: 4.09
Clc1ccc2[nH]ccc2c1 | 30% | 4.62 | Non-toxic | – | pEC50 [6]: 4.11; Activity [9]: 50%
Fc1ccc2[nH]ccc2c1 | – | – | Non-toxic | – | –
Brc1cccc2cc[nH]c12 | – | – | Non-toxic | 5.5 µM | inhibition at 50 µM [4]: > 70%
Fc1cccc2[nH]ccc12 | – | – | Non-toxic | 5.1 µM | pIC50 [2]: 4.74; pKi [2]: 5.04; Activity [2]: Dose-dependent-effect; inhibition at 50 µM [4]: > 70%
O=C1Cc2cc(Br)ccc2N1 | – | – | Non-toxic | 4.7 µM | pIC50 [2]: < 4.00; Activity [2]: Dose-dependent-effect; inhibition at 50 µM [4]: 20%
Fc1cccc2cc[nH]c12 | – | – | Non-toxic | 3.8 µM | pIC50 [2]: 4.66; pKi [2]: 4.96; Activity [2]: Dose-dependent-effect; inhibition at 50 µM [4]: > 70%
O=C1Cc2cc(F)ccc2N1 | – | – | Non-toxic | – | –
Clc1cccc2[nH]ccc12 | 15% | 5.10 | Non-toxic | – | Activity [9]: 50%
Clc1cc2c(cc1Cl)Oc1cc(Cl)c(Cl)cc1O2 [2,3,7,8-TETRACHLORODIBENZO-P-DIOXIN] | – | – | – | – | fold change (FC) [10]: ~26; fold change (FC) [11]: ~92
c1ccc2[nH]ccc2c1 [INDOLE] | 94% | 4.95 | Non-toxic | – | pEC50 [6]: 4.37

Second part, led by results:

activity at 100 µM [7] | pEC50 [8] | SMILES | Activity [1] | EC80 [3] | further results
68% | 5.60 | O=C1Cc2ccc(Br)cc2N1 | Non-toxic | 33.1 µM | Efficacy [5]: 12%; pEC50 [6]: 4.73; pIC50 [2]: < 4.00; Activity [2]: Dose-dependent-effect; inhibition at 50 µM [4]: 10%
108% | 5.17 | Brc1ccc2[nH]ccc2c1 | Non-toxic | – | pEC50 [6]: 4.24
86% | 5.28 | O=C1Cc2ccccc2N1 [OXINDOLE] | Non-toxic | – | pEC50 [6]: 4.09
